Reference: US20040072368A1, “Lipoprotein receptor” (priority 2002, published 2004)

Tests used:
HepG2 cells [1] = assay: TG-HDL2 internalisation assay; assay type: cell-based, human; details: for effect on internalisation of 125I-TG-HDL2: 75 μg/ml 125I-TG-HDL2, 10 min at 37° C., 10 μg/ml free-apoA-I, 100 nM ADP, 100 nM ATP, 0.2 U/ml apyrase, 100 nM EGF
Description: (§1) Panel 1, 2 and 3. TG-HDL2 and LDL internalization by HepG2 cells. Cells are incubated for 10 min at 37° C. with 75 μg/ml of ^125I-TG-HDL2 (panels 1 and 3), TG-HDL2 labelled with ^3H-cholesteryl ester (panel 1 “chol”) or ^1251-LDL (panel 2). Alternatively, 10 μg/ml free-apoA-I (A, G), 100 nM ADP (B, H), both free-apoA-I and ADP at the same concentrations as above (C), 100 nM ATP (D), 0.2 U/ml apyrase (E), 100 nM EGF (F), or increasing concentrations of 2MeS-ADP (▪) and ATPγS (□) (panel 3) are added to the incubation medium. Results are expressed as the percentage of stimulation related to the value of internalisation obtained without addition of any compound (corresponding to a value of 400 ng TG-HDL2/mg of cell protein). The same experiments are performed on IHH cells with similar results (data not shown).
HepG2 cells are incubated for 10 min at 37° C. in DMEM pH 6.6 with 75 μg/ml of ^125I-TGHDL 2 and in the presence of increasing concentrations of IF, without (panel A) or with (panel B) free-apoA-I (10 μg/ml). Results are expressed as the percentage of stimulation as referred to the value of internalisation obtained without addition of any compound (corresponding to a value of 400 ng TG-HDL2/mg of cell protein).
Cells are washed three times and pre-incubated for 30 min at 37° C. in serum free DMEM. ^125I triglyceride rich-HDL2 (75 μg/ml) are added on the cells and incubated at 37° C. for various time. Depending on the experiment, free apolipoprotein A-I (10 μg/ml) or other compounds, are added to the incubation medium. At each incubation time, cells are washed with cold DMEM and the release of radioactive ligands associated to the cell surface is performed at 4° C., for 90 min in DMEM. The radioactivity internalised into the cells and the protein content is determined as in the competition assays. Non-specific internalisation is analysed in the presence of an excess of 600 μg/ml of HDL3. Results are expressed as the percentage of stimulation related to the value of internalisation obtained without addition of any compound. The same method is used for the measurement of LDL internalisation.

[2] = molecular target: T1, cell surface ATP synthase (Homo sapiens, UniProt P06576); assay: Cell surface ADP generation assay (ATP hydrolysis), HPLC/TLC; assay type: cell-based; details: HepG2
T1 construct: endogenous in cells; host or cells: HepG2
Description: ^32Pi and ADP (panels A and B) or [α-32P] ATP (panels C, D, E and F) are added to the HepG2 cell medium as described in Experimental Procedures, and the cells are incubated for 10 min at 37° C. with 10 μg/ml apoA-I (panels B and D), 100 nM IF1 (panel E), or both IF1 […] and apoA-I at the same concentrations as above (panel F). Control experiments are performed with neither apo AI nor IF1 added into the cell medium (panel A and C). Supernatants are recovered and analysed by HPLCs.
Confluent HepG2 in 6-well plates are washed in DMEM, then incubated at 37° C. for 10 min in DMEM pH 6.6 with 0.1 μCi [α-32P] ATP for ADP generation assay, or with 0.1 μCi 32Pi and ADP (100 nM final) for ATP generation assay. Depending on the experiment, IF1 (100 nM final) or apoA-I (10 μg/ml final) are added in the reaction mixture. Supernatants are removed and analysed using two different systems: 1) by HPLC coupled to a radioactivity detector on a Whatman Partisphere 5 SAX column (Whatman International Ltd., UK) as described previously (13); calibration is done with radiolabelled nucleotides. 2) by thin layer chromatography in the solvent NaCl 2.4%/NH4OH/H2O/MeOH (12.5/15/27.5/50, v/v); radioactive spots are counted by liquid scintillation.

HepG2 cells and IHH = assay: Cholesterol efflux; assay type: cell-based, human; details: range of 1 nM to 10 μM
rat liver = assay: TG-HDL2 internalisation by perfused rat liver (in situ); assay type: in vivo
Description: The liver from male Whistar rats (7-8 weeks old) were perfused in situ during 45 minutes at 37° C. in Ringer medium (pH 6.8) with 35 μg/ml of 1251-TG-HDL2 with or without 1 μM IF1. Livers were then extensively washed at 4° C. and radioactivity counted. n=7 per group. Values represent means±SEM, with p<0.02 (unpaired t-test). Control fluorescence-assisted flow cytometry experiments have shown the presence of both the Band a-chain ATP synthase at the cell surface of isolated rat hepatocytes (not shown).

EGF receptor = EGF receptor internalisation by flow cytometry; assay type: cell-based, human; details: HepG2, 10 min pre-incubation, 10 μg/ml free-apoA-I or 100 nM ADP
Description: Panel 4. Internalisation of EGF receptor by HepG2 cells. Cells are pre-incubated for 10 min in serum-free medium with (J) or without (K) […] EGF, or with 10 μg/ml free-apoA-I (L), 100 nM ADP (M). The amount of EGF receptor is measured by Flow Cytometry using anti-EGF receptor antibody. As a control experiment for the efficacy of EGF receptor antibody, isotypic IgG are used (I). Results are expressed as the mean relative cell fluorescence and receptor internalisation is related to lower fluorescence.
For analysis of the cell surface EGF receptor, HepG2 cells are preincubated in medium with or without 20 nM EGF for 10 min at 37° C. For flow cytometry analysis, HepG2 and CHO cells are detached by incubation with Ca2+, Mg2+free PBS containing 2 mM EDTA, pH 7.4, fixed in 3% paraformaldehyde and pelleted in a microfuge. Cells are incubated at 20° C. for 1 h in PBS, pH 7.4 containing 1% BSA with either mouse monoclonal antibodies against the human β-subunit of ATP synthase, the human cytochrome oxidase subunit I, the human EGF receptor or against isotypic control IgG. Cells are washed in PBS/BSA 1% and incubated at 20° C. for 30 min with goat […] IgG conjugated to fluorescein isothiocyanate. After a final wash, cells are pelleted and resuspended in PBS/BSA 1% at a density of 1×10^6 cells/ml. The mean relative fluorescence after excitation at a wavelength of 488 nm is determined for each sample on a Coulter XL 4C flow cytometer and analysed with CELLQUEST software (Becton-Dickenson).

HepG2 cells [3] = assay: LDL internalisation assay; assay type: cell-based, human; details: 10 μg/ml free-apoA-I or 100 nM ADP, 10 min at 37° C.
Description: as §1
Cells are washed three times and pre-incubated for 30 min at 37° C. in serum free DMEM. ^125I triglyceride rich-HDL2 (75 μg/ml) are added on the cells and incubated at 37° C. for various time. […] The radioactivity internalised into the cells and the protein content is determined as in the competition assays. Non-specific internalisation is analysed in the presence of an excess of 600 μg/ml of HDL3. Results are expressed as the percentage of stimulation related to the value of internalisation obtained without addition of any compound. […]

T1 sequence (P06576 48-529): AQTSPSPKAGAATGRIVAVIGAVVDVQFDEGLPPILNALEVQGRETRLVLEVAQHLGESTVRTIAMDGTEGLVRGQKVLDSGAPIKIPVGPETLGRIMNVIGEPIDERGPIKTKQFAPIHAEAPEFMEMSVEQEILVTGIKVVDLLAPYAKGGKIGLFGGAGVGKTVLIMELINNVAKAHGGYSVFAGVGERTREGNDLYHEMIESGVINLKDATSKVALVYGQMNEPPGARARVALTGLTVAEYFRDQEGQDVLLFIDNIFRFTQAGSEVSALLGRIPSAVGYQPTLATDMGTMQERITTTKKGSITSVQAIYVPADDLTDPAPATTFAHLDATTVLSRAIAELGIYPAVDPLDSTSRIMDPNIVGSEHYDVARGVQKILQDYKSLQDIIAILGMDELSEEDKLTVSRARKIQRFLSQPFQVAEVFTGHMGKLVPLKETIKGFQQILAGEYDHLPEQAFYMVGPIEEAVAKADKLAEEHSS
T1 sequence (P25705 44-553 partner): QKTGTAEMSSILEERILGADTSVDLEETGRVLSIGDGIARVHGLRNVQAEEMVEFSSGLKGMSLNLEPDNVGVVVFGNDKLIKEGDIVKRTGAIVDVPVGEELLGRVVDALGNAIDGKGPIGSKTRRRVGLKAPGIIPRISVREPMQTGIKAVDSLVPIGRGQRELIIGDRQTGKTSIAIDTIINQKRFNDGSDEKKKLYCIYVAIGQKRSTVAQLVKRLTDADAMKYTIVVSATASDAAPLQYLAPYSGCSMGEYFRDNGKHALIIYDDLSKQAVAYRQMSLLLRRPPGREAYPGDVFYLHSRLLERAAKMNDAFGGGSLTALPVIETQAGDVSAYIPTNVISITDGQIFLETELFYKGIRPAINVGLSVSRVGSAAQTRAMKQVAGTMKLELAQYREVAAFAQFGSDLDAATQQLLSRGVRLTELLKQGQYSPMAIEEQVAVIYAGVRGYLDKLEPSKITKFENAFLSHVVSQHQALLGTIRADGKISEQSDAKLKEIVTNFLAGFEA
T1 sequence (P36542 26-298 partner): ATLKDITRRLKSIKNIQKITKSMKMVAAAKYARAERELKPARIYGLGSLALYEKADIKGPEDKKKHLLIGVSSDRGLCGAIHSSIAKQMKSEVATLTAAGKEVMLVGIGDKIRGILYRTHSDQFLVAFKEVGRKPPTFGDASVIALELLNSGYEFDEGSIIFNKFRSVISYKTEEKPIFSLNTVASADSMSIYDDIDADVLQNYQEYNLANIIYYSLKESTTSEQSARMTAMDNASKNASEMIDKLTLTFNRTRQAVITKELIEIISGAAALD
T1 sequence (P30049 23-168 partner): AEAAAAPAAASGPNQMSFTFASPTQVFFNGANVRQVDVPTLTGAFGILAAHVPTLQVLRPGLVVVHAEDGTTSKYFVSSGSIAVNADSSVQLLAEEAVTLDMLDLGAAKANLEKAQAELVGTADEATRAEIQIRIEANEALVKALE
T1 sequence (P56381 2-51 partner limits assumed): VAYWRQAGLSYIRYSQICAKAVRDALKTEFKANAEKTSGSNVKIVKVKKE

Molecule: Nc1ncnc2c1ncn2[C@@H]1O[C@H](COP(=O)(O)OP(=O)(O)OP(=O)(O)O)[C@@H](O)[C@H]1O [ATP]
- effect on internalisation of 125I-TG-HDL2 (HepG2 cells [1]): small stimulation

Molecule: IF1: natural inhibitor protein of mitochondrial F1-ATPase, inhibits the hydrolytic activity of the ATP synthase
- decrease of [α-32P]-ADP generated as compared to control ([2]; 100 nM IF1, 10 min at 37° C.): 48%
- effect on the free-apoA-I stimulation of ATP hydrolysis ([2]; 100 nM IF1 plus 10 μg/ml apoA-I, 10 min at 37° C.): could inhibit the stimulatory effect
- effect on stimulation of TG-HDL2 endocytosis by free-apoA-I (HepG2 cells [1]; higher concentrations of IF1, with free-apoA-I 10 μg/ml, DMEM pH 6.6): completely abolish
- effect on TG-HDL2 internalisation (HDL endocytosis) (HepG2 cells [1]; increasing concentrations of IF1, without free-apoA-I, DMEM pH 6.6, 10 min at 37° C.): dramatic decrease
- influence on cholesterol efflux (HepG2 cells and IHH): no influence
- TG-HDL2 internalisation by perfused rat liver (rat liver; 1 μM IF1, 35 μg/ml 125I-TG-HDL2, 45 minutes at 37° C., means±SEM, n=7): 2.597 ± 1.026 μgTG-HDL2/g of liver
- decrease of TG-HDL2 internalisation by the liver (rat liver; perfused rat liver, 45 min, 1 μM IF1): up to 45%

Molecule: apyrase
- effect on internalisation of 125I-TG-HDL2 (HepG2 cells [1]): completely abolishes

Molecule: EGF: known to induce endocytosis of the EGF receptor (NSDSECPLSHDGYCLHDGVCMYIEALDKYACNCVVGYIGERCQYRDLKWWELR; Epidermal growth factor; UniProt P01133 971-1023, looked up)
- effect on internalisation of 125I-TG-HDL2 (HepG2 cells [1]): does not stimulate
- number of EGF-R at the cell surface (EGF receptor): strongly reduces

Molecule: Nc1ncnc2c1ncn2[C@@H]1O[C@H](COP(=O)(O)OP(=O)(O)OP(O)(O)=S)[C@@H](O)[C@H]1O [ATPγS]
- stimulation of TG-HDL2 endocytosis (HepG2 cells [1]; ATPγS at 10 μM): 15%
- effect on TG-HDL2 endocytosis (HepG2 cells [1]; ATPγS at low concentrations): weak effect

Molecule: Nc1ncnc2c1ncn2[C@@H]1O[C@H](COP(=O)(O)OP(=O)(O)O)[C@@H](O)[C@H]1O [ADP, reference compound]
- effect on internalisation of 125I-TG-HDL2 (HepG2 cells [1]): stimulates
- stimulation of endocytosis of 125I-labeled LDL (HepG2 cells [3]): no stimulation
- number of EGF-R at the cell surface (EGF receptor): neither free apoA-I (FIG. 6-4L) nor ADP (FIG. 6-4M) are able to reduce
- influence on cholesterol efflux (HepG2 cells and IHH): no influence

Molecule: CSc1nc(N)c2ncn([C@@H]3O[C@H](COP(=O)(O)OP(=O)(O)O)[C@@H](O)[C@H]3O)c2n1 [2MeS-ADP]
- effect on TG-HDL2 endocytosis (HepG2 cells [1]; 2MeS-ADP at 10 to 100 nM): stimulatory effect
- effect on TG-HDL2 endocytosis (HepG2 cells [1]; 2MeS-ADP at higher concentrations (1 μM to 10 μM)): inhibition of endocytosis
